These results are taken from US20230130102A1, “Na/K-ATPase LIGANDS AND USE THEREOF FOR TREATMENT OF CANCER” (Marshall University Research Corporation, priority 2019, published 2023).

“Also recorded” adds a separate entry of the source.

Data set [1] deals with PC3 cells. Nature of the data set: 3D culture spheroid invasion and growth, PC3. It counts as cell-based, human. Here is the method: (§1) 3D culture-spheroid invasion assay. Cells were trypsinized gently (0.05% Trypsin-EDTA) and diluted at 1000 cells in 20 μl of full serum media for DU145 and C4-2 derived sub-clones or 500 cells in 20 ul for PC3 cells and allowed to form spheroids using hanging drop technique for 3 days, as described previously. Generated spheroids were then embedded into 3D matrix (not yet solidified at the time of experiment), as described in the previous section, on top of a 1% solidified agarose coating in 48 well plates. Spheroids were monitored from day 1 to different time points and images were taken using a phase contrast microscope fitted with camera, at same settings. Spheroid growth or invasion area was quantified using ImageJ software from NIH. The following formulas were used for quantitation of spheroids:
(§2) Spheroid invasion=(Invasion area/Spheroid area)*100
(§3) Spheroid growth=(Spheroid area at Day 3 or 7-Spheroid area at 16 hours)/Spheroid area at 16 hours
(§4) For drug treatment, compound was diluted into media, from stock solution. For MMP secretion, conditioned media for 3 days were collected from top of matrix and assessed for MMP secretion by Western blot using Matrix Remodeling Antibody Sampler kit from Cell Signaling Technology (Cat #73959).

The test system of data set [2] is subclone 4 and 2 xenograft. Nature of the data set: tumor xenograft of aggressive subclones 4 and 2 in NOD/SCID mice. The format is in vivo, mouse. The method, then:
Mice studies. Animal protocols were approved by an Institutional Animal Care and Use Committee (IACUC) according to NIH guidelines. Tumor xenografts were established by subcutaneous injection of 5×10^6 cancer cells into the left and right flanks of 10-week-old male NOD/SCID mice (Charles River). Tumor length (L) and width (W) were measured with calipers weekly and tumor volume was estimated as V=(L×W^2)/2. After the tumor volumes reached approximately 100 mm^3, mice were sacrificed and tumors were harvested. Half of the tumors were used for protein extraction and the other half were digested with collagenase I solution (SIGMA) to isolate cancer cells.
For MB5 treatment, after tumor volume reached approximately 100 mm^3, mice were injected peritoneally with DMSO or MB5 at 20 mg/kg or 10 mg/kg daily and further monitored for tumor growth weekly. At the end of treatment period (about 2-3 weeks), tumors were harvested and tumor lysates were analyzed for protein expression by Western blot.
The therapeutic potential of MB5 in a tumor xenograft model was first tested by injecting DU145 or corresponding α1 knockdown cells (KD) into the right or left flank of 10-week-old NOD/SCID mice. The tumor growth was monitored twice weekly. […] Next, it was determined whether MB5 could decrease tumor growth of highly aggressive subclones derived from DU145. […]

For data set [3], the system named is EGF or dopamine induced ERK activation. Put plainly: EGF- or dopamine-induced ERK activation in LLC-PK1 cells. The format is cell-based, pig. The method, then:
Western blot, Immunoprecipitation and Immunostaining. Cells were grown to 100% confluency and Western blot were performed as described before. Images were quantified with ImageJ software from NIH. Immunoprecipitation studies were performed as described before. α1 NKA immunostaining was performed by growing cells on sterilized coverslips in 6 well tissue culture plates and permeabilization/fixation with ice-cold methanol followed by blocking with 5% horse serum and 0.1% Triton X-100 in 1× Phosphate buffered saline (PBS) for 30 minutes. Coverslips were then stained with an anti-α1 NKA antibody (Millipore, Cat #05-369) at 1:100 dilution in 1% BSA (Bovine Serum Albumin) containing 1×PBS solution for overnight. Next day after three washes, coverslips were stained with Alexa Fluor 488 conjugated anti-mouse secondary antibody (Thermo-Fisher) for 1 hour, washed extensively and then imaged using a fluorescent microscope with GFP filter or confocal microscope (LEICA-DMIRE2). E-cadherin and occludin immunostaining was performed in a similar manner. Phospho-Src, phospho ERK1/2 immunostaining were performed as described before and images were taken with a LEICA DMIRE2 confocal microscope. […]

The test system of another data set is subclone 2 spheroids. Put plainly: MMP secretion by spheroids (Western blot of conditioned media). The format is cell-based, human. The method, then: as §4
A further data set in a line: plasma stability. It counts as in vitro ADME.
For data set [4], the system named is PC3 cells. Put plainly: Spheroid aggregation in ultralow attachment plates, PC3. It counts as cell-based, human. The method, then: Spheroid aggregation in ultralow attachment plates. 5000 cells were plated in a 6 well ultralow attachment plate from Corning and allowed to form spheroids spontaneously for a week. Cell aggregates were then immunostained for E-cadherin expression using a monoclonal anti-E-cadherin antibody (Santacruz Biotechnology, Catalogue No.sc-71008), followed by Alexa-Fluor 488 anti-mouse secondary antibody (Thermo-Fisher).

A further data set deals with DU145 derived subclones. Put plainly: Western blot / immunostaining of EMT markers, Src/FAK activation and proliferation markers in DU145 derived subclones. The format is cell-based, human. The settings on record: for expression of PCNA: 72 hours. Here is the method: (§5) Western blot, Immunoprecipitation and Immunostaining. Cells were grown to 100% confluency and Western blot were performed as described before. Images were quantified with ImageJ software from NIH. Immunoprecipitation studies were performed as described before. α1 NKA immunostaining was performed by growing cells on sterilized coverslips in 6 well tissue culture plates and permeabilization/fixation with ice-cold methanol followed by blocking with 5% horse serum and 0.1% Triton X-100 in 1× Phosphate buffered saline (PBS) for 30 minutes. Coverslips were then stained with an anti-α1 NKA antibody (Millipore, Cat #05-369) at 1:100 dilution in 1% BSA (Bovine Serum Albumin) containing 1×PBS solution for overnight. Next day after three washes, coverslips were stained with Alexa Fluor 488 conjugated anti-mouse secondary antibody (Thermo-Fisher) for 1 hour, washed extensively and then imaged using a fluorescent microscope with GFP filter or confocal microscope (LEICA-DMIRE2). E-cadherin and occludin immunostaining was performed in a similar manner. Phospho-Src, phospho ERK1/2 immunostaining were performed as described before and images were taken with a LEICA DMIRE2 confocal microscope.
Next, it was tested whether MB5 as an inverse agonist of NKA receptor function could reverse EMT and stop invasion of PCa cells by rescuing α1 NKA expression in PCa. Subclone 5 and 2 cells were exposed to a long term treatment (0, 24, 48 and 72 hours) with 100 nM MB5.
(In general: Immunoblotting shows a protein as a band on a membrane.)

In data set [5] the target is T1, α1 NKA/Src receptor complex (Sus scrofa, UniProt P05024).
T1 construct: endogenous in cells; host or cells: LLC-PK1
Put plainly: ouabain-induced Src/ERK activation in LLC-PK1 cells (immunostaining, Western blot). The format is cell-based, pig. Here is the method:
as §5
Characterization of MB5 activity on the NKA receptor function known as the NKA/Src binary receptor mechanism was conducted in a pig kidney epithelial cells (LLC-PK1)-based platform using immunostaining and Western blot analyses. […] The change of NKA conformation that occurs upon binding of agonists such as ouabain, results in the release and activation of the Src kinase domain from the “Naktide” site of NKA CD3, while the other interaction (constitutive) persists between NKA CD2 and the SH2 domain of Src. […] In LLC-PK1-derived cells with low NKA receptor constitutive activity due to substantial reduction (over 80%) of α1 NKA expression by siRNA (PY17 cells), increased basal Src and ERK activity is observed due to the abnormally high amount of Src kinase that remains in an active conformation. […]

The subject of data set [6] is clone 2 spheroids (DU145 derived). Put plainly: 3D culture spheroid invasion assay, subclone 2. It counts as cell-based, human. The method, then: as §1, §2, §3, §4
Where [7] appears, read: Western blot, 100 nM, up to 72 hours.

For the compound `O=c1c2cccc(O)c2oc2c(O)c(O)ccc12` [MB5], the “inhibition of spheroid size” value was “about 25%” with PC3 cells [1] (PC3, 0.1 μM) and ~50% in the data set on PC3 cells [1] (PC3, 1 μM). The “spheroid size / growth” value with PC3 cells [1] (PC3 spheroids) is “reduced spheroid invasion and growth; also recorded: reduced spheroid size in a concentration-dependent manner”. Further, the spheroid invasion result with PC3 cells [1] (PC3 spheroids, day 7) was “reduced spheroid invasion; also recorded: suppressed spheroid invasion; also recorded: reduced both invasion”; in data set [6] (clone 2 spheroids, 3D culture), “abolished the invasion; also recorded: suppressed spheroid invasion by subclone 2 cells in a dose-dependent manner; also recorded: significantly reduced invasion of clone 2 spheroids in a dose-dependent manner”. In addition, the tumor growth entry in [2] (10 mg/kg, subclones 4 and 2) is reported as “significantly reduced tumor growth from both cell types; also recorded: significantly reduced xenografted tumor growth”. Besides, the “α1 NKA and E-cadherin expression in tumor lysates” value in data set [2] (subclone 2 tumor lysates, Western blot) was “increasing α1 NKA and E-cadherin expression”. Further, the “EGF-induced ERK activation” value in [3] is listed as “did not inhibit; also recorded: failed to inhibit; also recorded: did not affect EGF-induced ERK activation”. Moreover, in data set [3], the “dopamine-induced ERK activation” value is reported as “did not inhibit; also recorded: failed to inhibit; also recorded: did not affect dopamine-induced activation of ERK”. In the data set on subclone 2 spheroids, the “MMP2 and 9 secretion” value was “significantly reduced MMP2 and 9 secretions”. Also, the plasma stability entry in the data set “plasma stability” is “good plasma stability”. Also, the cell aggregation result in the data set with PC3 cells [4] (PC3, ultralow attachment plates) was “increased cell aggregation in a concentration-dependent manner”. For the same compound, in the data set with PC3 cells [4] (PC3 aggregates, immunostaining), the E-cadherin expression result is given as “significantly increased E-cadherin expression”. Moreover, in the data set with DU145 derived subclones (100 nM, subclones 5 and 2), the “Src, FAK activation and Myc expression” value is on record as “significant decrease”. Also, the “expression of mesenchymal markers (SNAIL, ZEB1)” value in the data set with DU145 derived subclones (setting [7]) was “downregulating; also recorded: decreased expression of mesenchymal markers”. Moreover, the “α1 NKA and E-cadherin expression” value with DU145 derived subclones (setting [7]) was “increasing; also recorded: significant time-dependent increase; also recorded: increased α1 NKA and E-cadherin expression”. The “expression of PCNA” value in the data set with DU145 derived subclones (subclone 2, 100 nM) is recorded as “significantly reduced”; with DU145 derived subclones (subclone 5, 100 nM) it was “abolished”. Besides, the “ERK activation / NKA receptor function by the compound alone” value in [5] (baseline) is listed as “did not activate NKA receptor function under baseline condition; also recorded: did not activate ERK”. Further, in data set [5] (pretreatment before ouabain), the “inhibition of ouabain-induced ERK (and Src) activation” value is “abolished ouabain-induced ERK activation; also recorded: better efficacy to inhibit ouabain-induced ERK activation than MB7; also recorded: dose-dependently inhibited Src and ERK activation; also recorded: significantly decreased ouabain-induced ERK signal”. The spheroid size result in data set [6] (subclone 2 spheroids, 72 hours) was “significantly reduced spheroid size”.
